According to PMC12845422, “Characterization of a Novel Family of Contilisant + Belinostat Multitarget Small Molecules in Glioblastoma” (Pharmaceuticals, 2025):
Several values for one entry are separate records, joined by “and”; a condition that tells them apart may be missing. Equal values may be shown once. Entries after “also recorded” stand apart in the source; their conditions may differ.

Experiments:
subcutaneous tumors = assay: In vivo carcinogenesis assay, combination with TMZ; set-up: species or system mice
Procedure: (§1) Subcutaneous tumor growth was initiated by injecting 5 × 10^5 cells into both hind flanks of athymic nude-Foxn1^nu mice. Once the tumors reached 25–50 mm^3, mice were allocated to treatment groups by gender and tumor size. For monotherapy, mice were treated intratumorally with vehicle (DMSO dilution) or 200 µM of MTP150 or intraperitoneally with 15 mg/kg, on a 5-days-on, 2-days-off schedule. In combination therapy, 0.5 mg/Kg TMZ or vehicle was administered intraperitoneally during the first 5 days; intratumoral MTP150 or vehicle was delivered with the same schedule. After 4 weeks, mice were sacrificed and tumors were extracted.

U87-MG cells [1] = assay: MTT cell viability, U87-MG; assay type: cell-based; details: Homo sapiens, U-87 MG, 72 h
Procedure: (§2) Cells were seeded at a density of 1.5 × 10^3 cells/well (conventional cell lines) or 5 × 10^3 cells/well (GNS and NHA) in 96-well plates and incubated overnight. Cells were then treated with increasing concentrations of MSMs. After 72 h, cells were incubated for 3.5 h with MTT, after which absorbance at 570 nm was measured. IC50 values were calculated using GraphPad Prism software.

[2] = tested on: Normal Human Astrocytes (NHAs); assay: MTT cell viability, normal human astrocytes; assay type: cell-based; details: Astrocyte, MSM 0–100 μM, 72 h, read-out: IC50 in NHA
Procedure: as §2

[3] = tested on: MKN45 gastric cancer cells; assay: MTT cell viability, MKN45; assay type: cell-based; details: Homo sapiens, MKN-45; MSM 0–10 μM
Procedure: as §2

[4] = tested on: RWP1 pancreatic cancer cells; assay: MTT cell viability, RWP1; assay type: cell-based; details: MSM 0–10 μM
Procedure: as §2

H1299 lung cancer cells = assay: MTT cell viability, H1299; assay type: cell-based; details: Homo sapiens, NCI-H1299; MSM 0–10 μM
Procedure: as §2

GNS166 cells [5] = assay: Cell cycle analysis by flow cytometry; assay type: cell-based; details: 5 μM
Procedure: Cells were harvested using accutase and washed with PBS. Then, 1·10^6 cells were fixed with 70% cold ethanol at −20 °C for at least 24 h, and incubated with 0.5% Triton X-100 and 25 µg/mL RNase A in PBS for 30 minutes at room temperature. Then, DNA was stained with 25 ng/mL propidium iodide for 15 minutes and samples were analyzed using a CytoFLEX flow cytometer (Beckman Coulter Co., Brea, CA, USA).

HDAC1 = tested on: HDAC1; set-up: method as in PMID 40109740; details: read-out: HDAC inhibitory activity HDAC1 (IC50); cited from earlier work
HDAC6 = tested on: HDAC6; set-up: method as in PMID 40109740; details: read-out: HDAC inhibitory activity HDAC6 (IC50); cited from earlier work
recombinant hMAO-B = molecular target: T1, recombinant hMAO-B (Homo sapiens, UniProt P27338); assay: MAO-B inhibition assay; assay type: biochemical; details: 30 min preincubation, 37 °C
T1 sequence (P27338 1-520): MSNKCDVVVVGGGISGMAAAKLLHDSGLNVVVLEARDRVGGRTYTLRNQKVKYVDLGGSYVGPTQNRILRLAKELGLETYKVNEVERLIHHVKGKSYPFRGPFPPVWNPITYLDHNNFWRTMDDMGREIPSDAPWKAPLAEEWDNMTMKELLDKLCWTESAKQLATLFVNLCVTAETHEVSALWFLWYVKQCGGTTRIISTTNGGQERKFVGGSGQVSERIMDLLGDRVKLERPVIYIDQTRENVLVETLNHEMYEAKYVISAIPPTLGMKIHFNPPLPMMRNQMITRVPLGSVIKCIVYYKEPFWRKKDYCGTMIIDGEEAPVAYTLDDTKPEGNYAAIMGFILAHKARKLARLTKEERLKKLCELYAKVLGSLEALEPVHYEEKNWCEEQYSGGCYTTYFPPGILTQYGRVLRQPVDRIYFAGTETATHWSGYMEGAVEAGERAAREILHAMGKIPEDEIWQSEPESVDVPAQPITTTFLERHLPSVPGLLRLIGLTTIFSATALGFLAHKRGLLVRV
Procedure: Subsequently, 200 U/mL horseradish peroxidase, 20 mM Ampliflu Red and 100 mM tyramine hydrochloride (Sigma-Aldrich) were added, and absorbance was measured at 570 nm every 5 min for 30 min. The inhibition percentage was calculated from these absorbance values.

[6] = tested on: MKN45, RWP1 and H1299 cancer cells; assay: MTT cell viability, summary over gastric, pancreatic and lung cancer cells; assay type: cell-based; details: range over the three cell lines; read-out: IC50 range across MKN45, RWP1 and H1299
Procedure: as §2

U251-MG cells [7] = assay: MTT cell viability, U251-MG; assay type: cell-based
Procedure: as §2

[8] = tested on: GNS179 patient-derived GSCs; assay: MTT cell viability, GNS179; assay type: cell-based
Procedure: as §2

In vivo toxicity assay = details: intraperitoneal, 15 mg/kg
Procedure: Briefly, 15 mg/kg of MTP150 or vehicle (DMSO) was administered intraperitoneally to athymic nude-Foxn1^nu mice on a 5-days-on, 2-days-off schedule. Body weight was monitored to assess MSM potential toxicity. At the end-point, macroscopic analysis of the different organs was carried out.

[9] = tested on: U87-MG subcutaneous tumors; assay: In vivo carcinogenesis assay, monotherapy, subcutaneous U87-MG tumors; set-up: species or system mice
Procedure: as §1

[10] = Cell viability (MTT) of TMZ and MTP150 alone and combined; assay type: cell-based; details: 250 µM TMZ, 0.5 µM MTP150, 72 h
Procedure: as §2

U87-MG cells [11] = assay: Western blot of acetylated α-tubulin and acetylated H3, U87-MG; assay type: cell-based; details: 0.5, 1 and 10 µM
Procedure: (§3) Sodium dodecyl sulfate-polyacrylamide gel electrophoresis was performed. Primary antibodies against HDAC1 (Abcam, Waltham, MA, USA) and HDAC6 (Cell Signaling, Danvers, MA, USA), along with their downstream targets, acetylated H3 (Cell Signaling) and acetylated α-tubulin (Abcam), were used. β-actin (Sigma-Aldrich) served as endogenous control. Secondary antibodies conjugated to horseradish peroxidase (anti-rabbit or anti-mouse; Cell Signaling) were applied. Proteins were detected using the iBright imaging system and either NOVEX ECL Chemi Substrate or SuperSignal West Femto Maximum Sensitivity Substrate (ThermoFisher, Waltham, MA, USA).

GNS166 cells [12] = assay: Western blot of acetylated α-tubulin and acetylated H3, GNS166; assay type: cell-based; details: increasing concentrations
Procedure: as §3

U251-MG cells [13] = assay: Immunofluorescence proliferation / apoptosis, U251-MG; assay type: cell-based; details: dose-dependent
Procedure: (§4) For immunofluorescence assays, cells were seeded at a density of 2 × 10^4 cells/well in 8-well immunofluorescence chambers (LabTek Thermo, Waltham, MA, USA) and incubated overnight. Following 48 h of treatment, cells were fixed with 4% PFA. Primary antibodies against phospho-Histone H3 (p-H3, Abcam) and Caspase 3 (R&D Systems, Minneapolis, MN, USA) and secondary antibodies Alexa Fluor anti-mouse and anti-rabbit (Invitrogen, Carlsbad, CA, USA) were used. Nuclei were stained with DAPI (Sigma-Aldrich). Images were acquired using an Axio Observer 7 epifluorescence microscope, and quantification was performed with Qupath software version 0.6.0.

GNS179 cells = assay: Immunofluorescence proliferation / apoptosis, GNS179; assay type: cell-based; details: dose-dependent
Procedure: as §4

BChE = BChE (Homo sapiens, UniProt P06276); assay: BChE inhibition, Ellman's colorimetric method
BChE, sequence (P06276 29-602, species assumed): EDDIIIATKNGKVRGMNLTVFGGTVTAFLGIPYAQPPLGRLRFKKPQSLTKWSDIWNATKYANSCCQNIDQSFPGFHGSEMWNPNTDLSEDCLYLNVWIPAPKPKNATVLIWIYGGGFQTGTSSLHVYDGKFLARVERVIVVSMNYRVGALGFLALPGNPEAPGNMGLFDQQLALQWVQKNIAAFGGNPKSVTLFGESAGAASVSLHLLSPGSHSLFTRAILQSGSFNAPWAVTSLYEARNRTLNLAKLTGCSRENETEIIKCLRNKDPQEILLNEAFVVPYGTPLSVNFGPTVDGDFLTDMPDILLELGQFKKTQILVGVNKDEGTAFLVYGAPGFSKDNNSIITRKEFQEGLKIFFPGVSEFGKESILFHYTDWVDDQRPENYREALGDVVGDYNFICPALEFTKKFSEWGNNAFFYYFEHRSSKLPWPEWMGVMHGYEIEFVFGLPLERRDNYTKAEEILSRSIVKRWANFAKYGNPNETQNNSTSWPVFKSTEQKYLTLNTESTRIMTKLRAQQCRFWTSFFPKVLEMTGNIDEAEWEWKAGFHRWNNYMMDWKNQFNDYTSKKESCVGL
Procedure: To assess ChEs inhibition, Ellman’s colorimetric method was followed. […] After incubation, the substrate solution (acetylthiocholine or butyrylthiocholine iodide, Sigma-Aldrich, at 1.5 mM) was added, and absorbance was recorded at 405 nm every minute for 10 min. […] Enzyme kinetics were evaluated with varying substrate and inhibitor concentrations, and the results were plotted as Lineweaver–Burk plots using GraphPad Prism software. The inhibition constant (Ki) was estimated from the intersection on the x-axis in secondary plots.

[14] = intraperitoneal treatment, immunohistochemistry at end-point
[15] = intratumoral, immunohistochemistry at end-point

SMILES: Cn1nnc2c(C(N)=O)ncn2c1=O [TMZ, temozolomide, reference compound]
- average tumor volume (subcutaneous tumors; TMZ 0.5 mg/Kg i.p. first 5 days, intratumoral MTP150 or vehicle): ~ 580 mm^3

SMILES: COc1ccc2c(ccn2S(=O)(=O)c2cccc(/C=C/C(=O)NO)c2)c1 [MTP142]
- IC50 (U87-MG cells [1]): 3.22 µM
- IC50 [2]: 9780 nM
- IC50 [3]: 3270 nM
- IC50 [4]: 970 nM
- IC50 (H1299 lung cancer cells): 5640 nM

SMILES: O=C(/C=C/c1cccc(S(=O)(=O)n2ccc3cc(OCc4ccccc4)ccc32)c1)NO [MTP156]
- IC50 (U87-MG cells [1]): 3.13 µM
- IC50 [2]: 7690 nM
- IC50 [3]: 5740 nM
- IC50 [4]: 1170 nM
- IC50 (H1299 lung cancer cells): 6630 nM
- cell cycle alterations (GNS166 cells [5]): accumulation of cells in the subG0 phase
- IC50 (HDAC1): 210 nM
- IC50 (HDAC6): 330 nM

SMILES: O=C(/C=C/c1cccc(S(=O)(=O)n2ccc3cc(OCCCN4CCCCC4)ccc32)c1)NO [MTP150]
- IC50 (U87-MG cells [1]): 0.55 µM
- IC50 (recombinant hMAO-B): 1.5 µM
- IC50 [2]: 5720 nM
- IC50 [3]: 200 nM
- IC50 [4]: 100 nM
- IC50 (H1299 lung cancer cells): 700 nM
- IC50 [6]: 100 to 700 nM
- IC50 (U251-MG cells [7]; Homo sapiens, U-251, MTT): 1.02 µM
- IC50 (U251-MG cells [7]; MTT): 1 µM
- IC50 [8]: 6.03 µM and 6 µM
- animal body weight compared to controls (In vivo toxicity assay; 5-days-on 2-days-off, 4 weeks): did not produce any significant changes in animal body weight
- macroscopic analysis of post-mortem tissues (In vivo toxicity assay; end-point): did not show clear differences
- oncospheres generated by cells dissociated from treated tumors ([9]; 10 days in the absence of treatment): significantly fewer oncospheres
- average tumor volume ([9]; intraperitoneal treatment, U87-MG subcutaneous tumors): ~ 270 mm^3
- acetyl-α-tubulin and acetyl H3 staining in tumors [9, 14]: promotes an increase in both
- cleaved Caspase 3 staining in tumors [9, 14]: increase in apoptosis
- average tumor volume ([9]; intratumoral 200 µM): ~ 480 mm^3
- reduction in final tumor volume vs control ([9]; intratumoral 200 µM): ~ 50%
- tumor weight, lower mass than controls ([9]; intratumoral 200 µM, end-point day 39): > 40%
- PCNA positive cells in resected tumors [9, 15]: fewer PCNA positive cells
- cleaved Caspase 3 in resected tumors [9, 15]: increased cleaved Caspase 3
- tumor inhibition compared with Belinostat ([9]; relative tumor inhibition): more intense tumor inhibition
- viability at 72 h [10]: 37%
- antitumor activity compared with Belinostat (subcutaneous tumors; monotherapy and combination with TMZ): greater antitumor activity
- levels of acetylated α-tubulin and acetylated H3 (U87-MG cells [11]): highest levels of acetylated proteins; also recorded: higher levels of acetylated α-tubulin and H3 than both Belinostat and SAHA
- levels of acetylated α-tubulin and acetylated H3 (GNS166 cells [12]): higher levels of acetylated α-tubulin and H3 than both Belinostat and SAHA
- apoptosis (Caspase 3-positive cells) (U251-MG cells [13]): increased
- proliferation (p-H3- and Ki67-positive cells) (U251-MG cells [13]): reduced
- apoptosis (Caspase 3-positive cells) (GNS179 cells): increased
- proliferation (p-H3- and Ki67-positive cells) (GNS179 cells): reduced
- cell cycle alterations (GNS166 cells [5]): accumulation of cells in the subG0 phase
- IC50 (BChE): 8090 nM
- Ki (BChE): 2510 nM
- BChE inhibition mechanism (BChE; Lineweaver–Burk plot): mixed inhibition mechanism
- inhibition at 10 µM (BChE; read-out: BChE inhibition): 60%

SMILES: O=C(/C=C/c1cccc(S(=O)(=O)Nc2ccccc2)c1)NO [Belinostat]
- cell cycle alterations (GNS166 cells [5]): accumulation of cells in the subG0 phase
